This note sets out measurements from patent US20170267667A1, “[…] AS NON-NUCLEOSIDE REVERSE TRANSCRIPTASE INHIBITORS FOR ANTI-HIV-1 CHEMOTHERAPY” (Purdue Research Foundation, priority 2016, published 2017).

The nature of series [1]: Cytotoxicity for mock-infected MT-4 cells. The settings on record: human. It counts as cell-based. The protocol: (§1) In Vitro Antiviral Assay. Evaluation of the antiviral activity of compounds against HIV- 1RF infection in CEM-SS cells was performed using the XTT cytoprotection assay, as previously described (Buckheit, R. W. Jr., et al., Antiviral Res. 1995, 26, 117-132). Evaluation of the antiviral activity of compounds against HIV-1IIIB and HIV-2ROD in MT-4 cells was performed using the MTT assay, as previously described (Rice, W. G. and Bader, J. P., Adv. Pharmacol. (San Diego) 1995, 33, 389-438).
(§2) Biological Results. The antiviral activities of the ADAMs were evaluated by determining their ability to inhibit the enzymatic activity of HIV-1 RT in vitro (IC50) and protect HIV-infected cells from the cytopathic effects (EC50) of two viral strains (HIV-1RF and HIV-1IIIB). The cytotoxicities (CC50) of the ADAMs were determined on CEM-SS cells and MT-4 cells.

The next series concerns HIV-1RF. Kind of series: XTT cytoprotection assay, HIV-1RF infection in CEM-SS cells. It counts as cell-based. Conditions: for pEC50: Human immunodeficiency virus 1, inhibition of cytopathicity of HIV-1RF in CEM-SS cells; for SI (CC50/EC50) CEM-SS cells: CC50/EC50 ratio, HIV-1RF in CEM-SS cells. Here is the method: as §1
For orientation: Tetrazolium dyes change colour on reduction, which living cells bring about.

Series [2] is described as follows: Cytotoxicity for mock-infected CEM-SS cells. It counts as cell-based. The settings on record: human. The protocol:
as §1, §2

For another series, the system named is HIV-1IIIB. Kind of series: MTT assay, HIV-1IIIB in MT-4 cells. The format is cell-based. Conditions: for pEC50: Human immunodeficiency virus 1, MT4, inhibition of cytopathicity of HIV-1IIIB in MT-4 cells; for SI (CC50/EC50) MT-4 cells: CC50/EC50 ratio, HIV-1IIIB in MT-4 cells. The protocol: as §1
Series [3] concerns the target HIV-1 reverse transcriptase (Human immunodeficiency virus type 1 group M subtype B, UniProt P04585). Kind of series: RT inhibition assay, incorporation of [32P]GTP into poly(rC)/oligo(dG) template primer. The format is biochemical. The settings on record: poly(rC):oligo(dG) as the template primer; mean of at least two experiments; read-out: IC50 inhibitory activity versus HIV-1 reverse transcriptase. Here is the method: RT Inhibition Assay. Inhibition of purified recombinant reverse transcriptase was measured by the incorporation of [^32P]GTP into poly(rC)/oligo(dG) homopolymer template primers, as previously described (Cushman, M., et al., J. Med. Chem. 1996, 39, 3217-3227).

pEC50, pIC50: −log10 of the molar value.

On to `CON=C(Cl)c1cc(/C(=C\CCCN2CCOC2=O)c2cc(C)c3oc(=O)n(C)c3c2)cc(C)c1OC` [ADAM 18, 5-[(1E)-1-(3,7-Dimethyl-2-oxo-2,3-dihydro-1,3-benzoxazol-5-yl)-5-(2-oxo-1,3-oxazolidin-3-yl)pent-1-en-1-yl]-N,2-dimethoxy-3-methylbenzenecarboximidoyl Chloride], for which the CC50 came out at 5.19 µM in series [1] and 5.99 µM in series [2]. Moreover, the pEC50 in the series with HIV-1RF is below 4.00; in the series on HIV-1IIIB, below 5.28. The pIC50 in series [3] was 4.20.

Take `CON=C(Cl)c1cc(/C(=C\CCCc2nnc(C)o2)c2cc(C)c3onc(OC)c3c2)cc(C)c1OC` [ADAM 19, N,2-Dimethoxy-5-[(1Z)-1-(3-methoxy-7-methyl-1,2-benzoxazol-5-yl)-5-(5-methyl-1,3,4-oxadiazol-2-yl)pent-1-en-1-yl]-3-methylbenzenecarboximidoyl Chloride]: in series [1], the midpoint of cytotoxicity, the CC50, lay at 17.5 µM. For the same compound, in the series with HIV-1RF, the “SI (CC50/EC50) CEM-SS cells” value is 2 and the negative logarithm of the EC50 (pEC50) was 5.28. The compound further returned a CC50 in series [2] of 9.7 µM. In addition, in the series on HIV-1IIIB, the “SI (CC50/EC50) MT-4 cells” value is “≦2” and the pEC50 was at most 5.15. Besides, the pIC50 in series [3] was 4.47.

`CON=C(Cl)c1cc(/C(=C\CCCc2nc(C)no2)c2cc(C)c3onc(OC)c3c2)cc(C)c1OC` [ADAM 20, N,2-Dimethoxy-5-[(1Z)-1-(3-methoxy-7-methyl-1,2-benzoxazol-5-yl)-5-(3-methyl-1,2,4-oxadiazol-5-yl)pent-1-en-1-yl]-3-methylbenzenecarboximidoyl Chloride] had a half-maximal cytotoxic concentration (CC50) in series [1] of 21.2 µM. For the same compound, in the series on HIV-1RF, the “SI (CC50/EC50) CEM-SS cells” value came to 7 and the pEC50 was 5.77. Further, the cytotoxic concentration (CC50) in series [2] amounted to 11.4 µM. Also, in the series on HIV-1IIIB, the “SI (CC50/EC50) MT-4 cells” value is reported as 5 and the pEC50 was 5.38. In addition, in series [3], the pIC50 was 5.10.

In the case of `CON=C(Cl)c1cc(/C(=C\CCCc2nnc(C)o2)c2cccc(C#N)c2)cc(C)c1OC` [ADAM 21, 5-[(1Z)-1-(3-Cyanophenyl)-5-(5-methyl-1,3,4-oxadiazol-2-yl)pent-1-en-1-yl]-N,2-dimethoxy-3-methylbenzenecarboximidoyl Chloride], it took 22.3 µM to reach half-maximal cytotoxicity in series [1] (CC50). Moreover, in the series with HIV-1RF, the “SI (CC50/EC50) CEM-SS cells” value is recorded as 2 and the pEC50 was 5.24. In series [2], it took 13.2 µM to reach half-maximal cytotoxicity (CC50). Also, in the series on HIV-1IIIB, the “SI (CC50/EC50) MT-4 cells” value was found to be 6 and the negative-log EC50 (pEC50) is 5.58. The pIC50 in series [3] was 4.48.

For `CON=C(Cl)c1cc(/C(=C\CCCc2nc(C)no2)c2cccc(C#N)c2)cc(C)c1OC` [ADAM 22, 5-[(1Z)-1-(3-Cyanophenyl)-5-(3-methyl-1,2,4-oxadiazol-5-yl)pent-1-en-1-yl]-N,2-dimethoxy-3-methylbenzenecarboximidoyl Chloride], the CC50 in series [1] was found to be 110 µM. For the same compound, in the series on HIV-1RF, the “SI (CC50/EC50) CEM-SS cells” value amounted to 7 and the pEC50 is 5.46. Moreover, it took 25.5 µM to reach half-maximal cytotoxicity in series [2] (CC50). Also, in the series on HIV-1IIIB, the “SI (CC50/EC50) MT-4 cells” value is given as 41 and the pEC50 was 5.57. Moreover, in series [3], the negative-log IC50 (pIC50) is below 4.00.

With `CON=C(Cl)c1cc(/C(=C\CCCc2nnc(C)o2)c2ccc(C#N)cc2)cc(C)c1OC` [ADAM 23, 5-[(1Z)-1-(4-Cyanophenyl)-5-(5-methyl-1,3,4-oxadiazol-2-yl)pent-1-en-1-yl]-N,2-dimethoxy-3-methylbenzenecarboximidoyl Chloride], the CC50 in series [1] turned out to be 30.2 µM; in series [2], 18.1 µM. Also, the “SI (CC50/EC50) CEM-SS cells” value in the series on HIV-1RF is 7. The pEC50 was 5.59 with HIV-1RF and 5.44 in the series with HIV-1IIIB. The “SI (CC50/EC50) MT-4 cells” value with HIV-1IIIB was 8. Further, the pIC50 in series [3] was 4.49.

For the compound `CON=C(Cl)c1cc(/C(=C\CCCc2nc(C)no2)c2ccc(C#N)cc2)cc(C)c1OC` [ADAM 24, 5-[(1Z)-1-(4-Cyanophenyl)-5-(3-methyl-1,2,4-oxadiazol-5-yl)pent-1-en-1-yl]-N,2-dimethoxy-3-methylbenzenecarboximidoyl Chloride], in series [1], the midpoint of cytotoxicity, the CC50, lay at 97.5 µM. In addition, in the series with HIV-1RF, the “SI (CC50/EC50) CEM-SS cells” value worked out at 7 and the pEC50 is 5.60. The same compound registered a CC50 in series [2] of 16.9 µM. Moreover, in the series with HIV-1IIIB, the “SI (CC50/EC50) MT-4 cells” value worked out at 35 and the negative-log EC50 (pEC50) was 5.56. In addition, in series [3], the pIC50 was 7.00.

Take `CON=C(Cl)c1cc(/C(=C\CCCN2CCOC2=O)c2ccc(C#N)cc2)cc(C)c1OC` [ADAM 25, 5-[(1Z)-1-(4-Cyanophenyl)-5-(2-oxo-1,3-oxazolidin-3-yl)pent-1-en-1-yl]-N,2-dimethoxy-3-methylbenzenecarboximidoyl Chloride]: the CC50 in series [1] and in series [2] was 6.48 µM in each case. The negative logarithm of the EC50 (pEC50) in the series with HIV-1RF is below 4.00; with HIV-1IIIB it was below 5.19. Further, in series [3], the pIC50 was 4.38.

The compound `CO/N=C(\Cl)CCC/C=C(\c1cc(C)c(OC)c(C(=O)SC)c1)c1cc(C)c2oc(=O)n(C)c2c1` [ADAM 26, S-Methyl 5-[(1E,6Z)-6-Chloro-1-(3,7-dimethyl-2-oxo-2,3-dihydro-1,3-benzoxazol-5-yl)-6-(methoxyimino)hex-1-en-1-yl]-2-methoxy-3-methylbenzenecarbothioate] displayed a CC50 in series [1] of 59 µM. In the series with HIV-1RF, the “SI (CC50/EC50) CEM-SS cells” value was above 23 and the pEC50 was above 6.49. The compound further gave a CC50 in series [2] of 7.45 µM. Further, in the series on HIV-1IIIB, the “SI (CC50/EC50) MT-4 cells” value was found to be 109 and the pEC50 is 6.27. Besides, the negative-log IC50 (pIC50) in series [3] was 5.47.

As to `CO/N=C(\Cl)CCC/C=C(\c1cc(C)c(OC)c(C(=O)SC)c1)c1cc(C)c2onc(OC)c2c1` [ADAM 27, S-Methyl 5-[(1Z,6Z)-6-Chloro-6-(methoxyimino)-1-(3-methoxy-7-methyl-1,2-benzoxazol-5-yl)hex-1-en-1-yl]-2-methoxy-3-methylbenzenecarbothioate], the CC50 in series [1] came out at 16.3 µM; in series [2] it was 7.2 µM. For the same compound, in the series with HIV-1RF, the “SI (CC50/EC50) CEM-SS cells” value was determined as 3. Further, the pEC50 is 5.62 in the series with HIV-1RF and 5.49 with HIV-1IIIB. Moreover, in the series on HIV-1IIIB, the “SI (CC50/EC50) MT-4 cells” value was 5. The pIC50 in series [3] is 4.44.

The compound `CO/N=C(\Cl)CCC/C=C(/c1cccc(C#N)c1)c1cc(C)c(OC)c(C(=O)SC)c1` [ADAM 28, S-Methyl 5-[(1Z,6Z)-6-Chloro-1-(3-cyanophenyl)-6-(methoxyimino)hex-1-en-1-yl]-2-methoxy-3-methylbenzenecarbothioate] registered a CC50 in series [1] of 143 µM. In the series on HIV-1RF, the “SI (CC50/EC50) CEM-SS cells” value came to 52 and the pEC50 was 5.84. In series [2], this compound displayed a CC50 of 75.5 µM. Further, in the series on HIV-1IIIB, the “SI (CC50/EC50) MT-4 cells” value is given as 59 and the pEC50 is 5.61. In series [3], the pIC50 is 4.34.

With `CO/N=C(\Cl)CCC/C=C(/c1ccc(C#N)cc1)c1cc(C)c(OC)c(C(=O)SC)c1` [ADAM 29, S-Methyl 5-[(1Z,6Z)-6-Chloro-1-(4-cyanophenyl)-6-(methoxyimino)hex-1-en-1-yl]-2-methoxy-3-methylbenzenecarbothioate], the CC50 in series [1] amounted to 109 µM; in series [2], 56.5 µM. Moreover, in the series with HIV-1RF, the “SI (CC50/EC50) CEM-SS cells” value is 25. The pEC50 with HIV-1RF was 5.64; in the series on HIV-1IIIB, 5.49. For the same compound, in the series with HIV-1IIIB, the “SI (CC50/EC50) MT-4 cells” value amounted to 33. Also, in series [3], the negative logarithm of the IC50 (pIC50) is 4.92.

One may read the CC50 as the concentration giving 50% cytotoxicity. Higher therefore signals better tolerance by the cells. For orientation: pEC50 means the negative decadic logarithm of the EC50, by convention in mol/L. Low readings indicate a high EC50, high ones a low EC50. The term pIC50 denotes the negative decadic logarithm of the IC50, by convention in mol/L.
